Assay [1] has as its system HCV replicon (HCV 1b-377-neo replicon cells, Huh7). Kind of assay: HCV replicon cell-based FRET assay. As to conditions: Hepatitis C virus, Huh-7. The essentials:
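Huh7 cells carrying a neo-selectable genotype 1b HCV replicon (~3,000 RNA copies/cell) were seeded at 1.5×10^4 cells/well and treated 4 days at 37 °C (0.5% DMSO final). CC50 was read by alamar Blue (4 h, ex 530/em 580 nm). Lysates with 10 μM EDANS/DABCYL NS3 protease FRET peptide were read kinetically (ex 340/em 490 nm, 25 °C, ~15 min) for % inhibition.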

Another assay concerns HCV replicon. As to the kind of experiment: Two-drug combination matrix studies in HCV replicon system, Universal Response Surface Approach (URSA). Format: cell-based. Conditions: for EC50: Hepatitis C virus. As for the experimental part: In addition to the combination index approach, above, the Universal Response Surface Approach (URSA) was also used to assess the antiviral effects of combinations of NS5A or NS5B inhibitors with the NS3 protease inhibitor. The experiments were conducted in a matrixed format with 8 concentrations of NS3 protease inhibitor crossed against 10 concentrations of NS5A or NS5B inhibitor on each of three plates. 200× stock solutions of each inhibitor concentration were prepared by 3-fold dilution in DMSO. Effects on replication were assessed in the HCV replicon system as described above. The data was analyzed using the URSA as described in Greco, Park and Rustum (Greco, Park, Sook, and Rustum (1990) Application of a New Approach for the Quantitation of Drug Synergism to the Combination of cis-Diamminedichloroplatinum and 1-β-D-Arabinofuranosylcytosine, Cancer Research, 50, 5318–5327). The interaction of the two drugs was assessed by using non-linear regression with a bisection algorithm. Seven parameters were estimated. These include the minimal response or response in the absence of drug, the maximal response or response in the presence of infinite drug, EC50's for the two drugs, slope parameters for the two drugs, and the drug interaction parameter α which provides the assessment of synergism, antagonism or additivity. Additivity is implied when α is equal to zero, synergy if the interaction parameter is larger than zero, and antagonism when the interaction parameter is less than zero. The confidence interval for the interaction parameter is also presented. This interval is used to test for departure from additivity by comparing the bounds to zero—a lower bound of the interval greater than zero indicates synergy, an upper bound of less than zero indicates antagonism, and a value of zero contained in the interval indicates additivity.

The mark [2] stands for this setting: compound 28 combined with NS5A inhibitor, matrix study (Table 10).
Setting [3] is: compound 28 combined with NS5B inhibitor, Expt 1.
Where [4] appears, read: compound 28 combined with NS5B inhibitor, Expt 2.

The values below come from patent publication US7173004B2, “Macrocyclic isoquinoline peptide inhibitors of hepatitis C virus” (Bristol-Myers Squibb Company, priority 2003, dated 2007).

Molecules are shown by their SMILES.

On to `COc1ccc2c(OC3CC4C(=O)NC5(C(=O)NS(=O)(=O)C6CC6)CC5C=CCOCCCC(NC(=O)OC(C)(C)C)C(=O)N4C3)nccc2c1` (stereo not shown) [Compound 28, [4-Cyclopropanesulfonylaminocarbonyl-18-(6-methoxy-isoquinolin-1-yloxy)-2,15-dioxo-10-oxa-3,16-diaza-tricyclo[14.3.0.0^4,6]nonadec-7-en-14-yl]-carbamic acid tert-butyl ester], for which the EC50 is less than 50 nM in assay [1]; 9 nM in the assay with HCV replicon (matrix study with NS5A inhibitor, URSA estimate (Table 10)); 15 nM with HCV replicon (matrix study with NS5B inhibitor, Expt 1 (Table 11)); 20 nM with HCV replicon (matrix study with NS5B inhibitor, Expt 2 (Table 11)). Also, the Interaction parameter alpha turned out to be 0.63 in the assay on HCV replicon (setting [2]), 0.47 in the assay with HCV replicon (setting [3]) and 0.31 in the assay with HCV replicon (setting [4]). For the same molecule, the “Overall Result” value is on record as “Additivity” with HCV replicon (setting [2]); “additivity” in the assay with HCV replicon (compound 28 combined with NS5A inhibitor, matrix study (Table 10), listed as compound 28); “Additivity” in the assay on HCV replicon (setting [3]); “Additivity” with HCV replicon (setting [4]). Besides, in the assay on HCV replicon (two experiments), the “combination effect with the HCV NS5B inhibitor, matrix format” value was “overall additivity”.
For `COc1c(NC2CCCCCC=CC3CC3(C(=O)NS(=O)(=O)C3CC3)NC(=O)C3CC(Oc4nccc5ccccc45)CN3C2=O)c(=O)c1=O` (stereo not shown) [Compound 21], in assay [1], the EC50 is 50 to 500 nM.
